From patent US20160320414A1, “Assay for Detection of Transient Intracellular CA2+” (Rajiv Gandhi Centre for Biotechnology, priority 2007, published 2016)

Experiments:
Type in all cases: cell-based
[1] = target: T1, AMPA-type glutamate receptor GluR4 (Rattus norvegicus, UniProt P19493); assay: GluR4 receptor activity assay (GFP-CaMKII translocation to MLS-NR2B)
T1 construct: expressed in transfected cells; host or cells: HEK-293
Procedure: HEK-293 cells were cotransfected with GluR4 (pRK5-GluR4, about 0.33 μg/well), MLS-NR2B (pSGH-MLS-NR2B, about 0.33 μg/well) and GFP-CaMKII (pEGFP-CaMKII, about 0.1 μg/well) using lipofectamine reagent. During growth, the medium was supplemented with 50 μM CNQX (inhibitor of AMPA receptor). After 48 hours, the transfected cells were subjected to GluR4 activity assay. The growth medium was removed and the cells were washed twice with Ca^2+ and Mg free HBSS containing 2 mM HEPES and 400 μM EGTA. The GluR4 receptor was activated with HBSS solution containing 10 μM glutamate with or without 2 mM Ca^2+ for about 5 minutes. The inhibitor, CNQX (50 μM), when used, was preincubated for 3 minutes with cells in Ca^2+ and Mg^2+-free HBSS followed by activation using the components as described above with 50 μM CNQX. Cells were then fixed and were mounted onto glass slides.

[2] = target: T2, NMDA receptor formed of NR1 and NR2B subunits (Rattus norvegicus, UniProt P35439+Q00960); assay: NMDA receptor activity assay (GFP-α-CaMKII translocation signal); conditions: HEK-293 cells transfected with NR1, NR2B and GFP-α-CaMKII; for Ca2+ influx / translocation of GFP-α-CaMKII to NR2B upon receptor activation: glutamate 10 μM and glycine 2 μM with 2 mM CaCl2, about 5 minutes, no signal without extracellular Ca2+
T2 construct: expressed in transfected cells; host or cells: HEK-293

[3] = target: T3, vanilloid receptor (TRPV1) (Rattus norvegicus, UniProt O35433); assay: TRPV1 receptor activity assay (GFP-CaMKII translocation to MLS-NR2B)
T3 construct: expressed in transfected cells; host or cells: HEK-293

[4] = tested on: MLS-NR2B; assay: Ionomycin-mediated Ca2+-influx, cell count of cells with GFP-clustering signal; conditions: HEK-293 cells with MLS-NR2B
Procedure: For transfection, 1.5×10^4 HEK-293 cells were seeded on sterile 12 mm cover slips in 24 well plates (Nunc). After 24 hrs, the cells were cotransfected with plasmid constructs encoding GFP-α-CaMKII (0.1 μg/well) and either of MLS-NR2A or MLS-NR2B (0.25 μg/well), or pRK-NR2A or pRK-NR2B (along with pRc-NR1 for expression of functional NMDA receptor) using Lipofectamine reagent. About 48 hrs following transfection, cells were washed with Hank's balanced salt solution (HBSS) containing 20 mM HEPES and 1.4 mM EGTA. The cells were then incubated with 15 μM ionomycin in the same buffer for 10 min. Subsequently the cells were incubated in the same buffer containing 2 mM CaCl2 and 3 μM ionomycin. Cells were fixed with 3.7% paraformaldehyde in PBS (Phosphate-buffered saline, 10 mM disodium hydrogen phosphate, 1.8 mM potassium dihydrogen orthophosphate, 140 mM sodium chloride, 2.7 mM potassium chloride, pH adjusted to 7.4) at different time points after addition of calcium, mounted with mountant containing DABCO (antifade) and were observed through either a simple fluorescence microscope or a confocal fluorescence microscope (TCS -SP2-AOBS from Leica).
Appearance of perinuclear granules due to mitochondrial localization of GFP-α-CaMKII is taken as the signal for binding between GFP-α-CaMKII and MLS-NR2B. […]

T2 sequence (Q00960 27-1482, other chains not shown): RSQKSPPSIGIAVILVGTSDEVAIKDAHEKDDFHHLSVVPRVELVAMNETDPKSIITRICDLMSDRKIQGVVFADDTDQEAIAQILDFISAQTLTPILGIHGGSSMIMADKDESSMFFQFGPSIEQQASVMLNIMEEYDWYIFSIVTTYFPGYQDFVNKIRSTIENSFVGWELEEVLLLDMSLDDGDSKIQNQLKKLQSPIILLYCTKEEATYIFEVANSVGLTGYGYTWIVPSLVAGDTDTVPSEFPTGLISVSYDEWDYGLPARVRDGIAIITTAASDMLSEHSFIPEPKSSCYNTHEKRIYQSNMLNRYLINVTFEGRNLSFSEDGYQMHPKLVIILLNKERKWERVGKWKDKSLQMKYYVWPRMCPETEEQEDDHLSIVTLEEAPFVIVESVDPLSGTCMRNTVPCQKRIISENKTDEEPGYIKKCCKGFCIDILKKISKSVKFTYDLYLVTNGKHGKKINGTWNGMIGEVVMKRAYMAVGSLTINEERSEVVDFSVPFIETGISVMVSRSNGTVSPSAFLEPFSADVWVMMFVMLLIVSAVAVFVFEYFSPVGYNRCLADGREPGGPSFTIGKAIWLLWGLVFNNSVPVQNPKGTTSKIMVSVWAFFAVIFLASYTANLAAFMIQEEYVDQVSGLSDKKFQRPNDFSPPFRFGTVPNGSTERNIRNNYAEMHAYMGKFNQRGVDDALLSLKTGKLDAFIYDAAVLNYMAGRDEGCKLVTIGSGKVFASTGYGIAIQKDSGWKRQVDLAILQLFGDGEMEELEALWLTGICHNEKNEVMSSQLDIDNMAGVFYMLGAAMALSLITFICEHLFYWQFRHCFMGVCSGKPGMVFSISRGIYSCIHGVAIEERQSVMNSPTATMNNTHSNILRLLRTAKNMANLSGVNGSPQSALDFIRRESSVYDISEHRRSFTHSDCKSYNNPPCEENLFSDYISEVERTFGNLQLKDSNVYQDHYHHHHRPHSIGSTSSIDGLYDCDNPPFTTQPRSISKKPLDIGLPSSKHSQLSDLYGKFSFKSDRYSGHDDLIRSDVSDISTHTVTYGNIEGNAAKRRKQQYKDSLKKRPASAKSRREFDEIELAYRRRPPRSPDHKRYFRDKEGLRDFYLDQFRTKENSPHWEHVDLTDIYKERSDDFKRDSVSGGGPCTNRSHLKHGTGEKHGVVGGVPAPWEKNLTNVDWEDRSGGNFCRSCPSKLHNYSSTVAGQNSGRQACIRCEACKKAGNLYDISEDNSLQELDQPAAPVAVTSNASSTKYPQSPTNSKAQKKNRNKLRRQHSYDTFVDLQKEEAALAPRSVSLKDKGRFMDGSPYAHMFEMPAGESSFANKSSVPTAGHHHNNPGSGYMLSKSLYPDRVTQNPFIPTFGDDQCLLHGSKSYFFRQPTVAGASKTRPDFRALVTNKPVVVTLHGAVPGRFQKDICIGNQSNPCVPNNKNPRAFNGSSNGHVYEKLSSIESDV
T3 sequence (O35433 whole entry): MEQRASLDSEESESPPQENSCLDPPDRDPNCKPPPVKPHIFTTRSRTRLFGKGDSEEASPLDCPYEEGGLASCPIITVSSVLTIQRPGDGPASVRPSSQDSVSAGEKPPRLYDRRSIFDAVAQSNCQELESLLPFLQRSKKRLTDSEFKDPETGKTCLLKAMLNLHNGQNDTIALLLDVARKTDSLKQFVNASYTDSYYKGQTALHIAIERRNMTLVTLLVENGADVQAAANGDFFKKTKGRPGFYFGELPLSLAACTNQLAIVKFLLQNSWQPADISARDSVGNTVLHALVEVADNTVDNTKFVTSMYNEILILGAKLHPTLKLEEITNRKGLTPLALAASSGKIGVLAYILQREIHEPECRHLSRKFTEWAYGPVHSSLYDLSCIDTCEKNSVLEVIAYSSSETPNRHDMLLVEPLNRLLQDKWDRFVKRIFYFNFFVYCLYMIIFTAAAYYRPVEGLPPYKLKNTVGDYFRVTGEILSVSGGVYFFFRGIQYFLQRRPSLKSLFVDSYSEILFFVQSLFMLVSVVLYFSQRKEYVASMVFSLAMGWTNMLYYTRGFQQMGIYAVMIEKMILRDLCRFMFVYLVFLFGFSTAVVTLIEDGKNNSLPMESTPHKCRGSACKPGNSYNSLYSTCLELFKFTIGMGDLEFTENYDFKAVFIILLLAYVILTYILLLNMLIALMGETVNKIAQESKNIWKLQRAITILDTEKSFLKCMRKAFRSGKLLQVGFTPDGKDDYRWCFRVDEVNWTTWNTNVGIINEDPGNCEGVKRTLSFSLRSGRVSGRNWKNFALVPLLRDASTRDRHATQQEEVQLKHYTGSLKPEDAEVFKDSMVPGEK
T1 sequence (P19493 22-902 limits assumed): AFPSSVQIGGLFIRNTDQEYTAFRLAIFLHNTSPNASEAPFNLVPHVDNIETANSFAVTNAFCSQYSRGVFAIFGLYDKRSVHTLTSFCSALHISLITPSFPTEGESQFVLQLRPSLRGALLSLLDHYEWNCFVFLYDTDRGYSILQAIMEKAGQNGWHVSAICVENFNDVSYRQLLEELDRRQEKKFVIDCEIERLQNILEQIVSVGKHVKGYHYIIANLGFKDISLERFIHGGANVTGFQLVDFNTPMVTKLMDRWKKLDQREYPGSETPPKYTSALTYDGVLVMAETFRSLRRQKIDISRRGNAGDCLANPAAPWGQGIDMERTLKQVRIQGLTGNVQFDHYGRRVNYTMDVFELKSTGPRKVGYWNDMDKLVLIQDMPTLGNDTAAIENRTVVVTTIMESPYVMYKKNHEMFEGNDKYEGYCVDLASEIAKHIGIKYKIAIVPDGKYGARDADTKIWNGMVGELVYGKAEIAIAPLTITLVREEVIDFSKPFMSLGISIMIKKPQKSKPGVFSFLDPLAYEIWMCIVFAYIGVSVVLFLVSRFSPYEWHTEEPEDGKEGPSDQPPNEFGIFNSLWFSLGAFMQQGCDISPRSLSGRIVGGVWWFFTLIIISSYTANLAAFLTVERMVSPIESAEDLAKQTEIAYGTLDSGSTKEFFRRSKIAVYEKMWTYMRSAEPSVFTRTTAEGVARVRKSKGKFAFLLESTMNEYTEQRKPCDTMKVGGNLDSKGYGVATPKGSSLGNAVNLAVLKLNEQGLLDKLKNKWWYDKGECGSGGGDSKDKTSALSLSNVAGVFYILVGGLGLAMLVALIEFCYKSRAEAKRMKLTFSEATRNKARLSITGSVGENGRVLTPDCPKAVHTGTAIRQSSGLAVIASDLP

N#Cc1cc2[nH]c(=O)c(=O)[nH]c2cc1[N+](=O)[O-] [CNQX]
Generation of the signal in presence of specific inhibitor ([1]; CNQX 50 μM, preincubated 3 minutes, then glutamate activation (FIG. 11)): could be blocked

C[C@]12N[C@H](Cc3ccccc31)c1ccccc12 [MK-801]
Signal generation in presence of NMDA receptor specific inhibitor ([2]; activated with glutamate and glycine, 1 mM AP-5 or 10 μM MK-801): blocked

COc1cc(CNC(=O)CCCC/C=C/C(C)C)ccc1O [capsaicin]
Green punctae as signal for Ca2+-channel activity of TRPV1 upon activation ([3]; HEK-293 cells cotransfected with TRPV1, GFP-CaMKII and MLS-NR2B, capsaicin 3 μM or 10 nM with 2 mM Ca2+, 5 minutes): developed green punctae

Oc1cc2c(cc1O)CN(C(=S)NCCc1ccc(Cl)cc1)CCC2 [capsazepine]
Signal generation due to activation of TRPV1 in presence of inhibitor ([3]; capsazepine 50 μM, preincubated 3 minutes, then capsaicin activation with Ca2+ (FIG. 10)): could be inhibited

N[C@@H](CCC(=O)O)C(=O)O [glutamate]
Green punctae (translocation of GFP-CaMKII to MLS-NR2B) upon receptor activation ([1]; HEK-293 cells transfected with GluR4, GFP-CaMKII and MLS-NR2B, 10 μM glutamate with 2 mM Ca2+, about 5 minutes): caused the formation of green punctae | Ca2+ influx / translocation of GFP-α-CaMKII to NR2B upon receptor activation [2]: caused influx of Ca^2+

NCC(=O)O [glycine]
Ca2+ influx / translocation of GFP-α-CaMKII to NR2B upon receptor activation [2]: caused influx of Ca^2+

T286D-CaMKII: T286D mutant form of the GFP fusion of α-CaMKII used as Ca2+ sensor
Cell count (percentage of green cells with binding signal) relative to wild-type GFP-α-CaMKII ([4]; ionomycin-mediated Ca2+ influx (FIG. 5)): increased (more than two fold) cell count | Lowest extracellular [Ca2+] giving response ([4]; ionomycin-mediated Ca2+ influx, different extracellular [Ca2+] (FIG. 6)): 2 nM
